# Columns and labels:
# Assay type in all cases: functional, cell-based
# NCI-H2227 = assay: cells; details: Homo sapiens;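 further: growth inhibition of the human cell line, read out with a cell viability assay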
# Description: SANGER: Inhibition of human NCI-H2227 cell growth in a cell viability assay.
# ECC12 = assay: cells; details: Homo sapiens
# Description: SANGER: Inhibition of human ECC12 cell growth in a cell viability assay.
# NCI-H2107 = assay: SANGER: Inhibition of human NCI-H2107 cell growth in a cell viability assay.
# CRO-AP2 = assay: SANGER: Inhibition of human CRO-AP2 cell growth in a cell viability assay.
# SKM-1 = assay: SANGER: Inhibition of human SKM-1 cell growth in a cell viability assay.
# NCI-H128 = assay: SANGER: Inhibition of human NCI-H128 cell growth in a cell viability assay.
# EW-12 = assay: SANGER: Inhibition of human EW-12 cell growth in a cell viability assay.
# NCI-H1666 = assay: cells; details: Homo sapiens;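 further: growth inhibition of the cell line, read out with a cell viability assay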
# Description: SANGER: Inhibition of human NCI-H1666 cell growth in a cell viability assay.
# H9 = assay: cells; details: Homo sapiens
# Description: SANGER: Inhibition of human H9 cell growth in a cell viability assay.
# NCI-H1048 = assay: cells; details: Homo sapiens;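 further: growth inhibition of human NCI-H1048 cells, read out with a cell viability assay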
# Description: SANGER: Inhibition of human NCI-H1048 cell growth in a cell viability assay.
# OC-314 = assay: cells; details: Homo sapiens
# Description: SANGER: Inhibition of human OC-314 cell growth in a cell viability assay.
# KNS-62 = assay: cells; details: Homo sapiens;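 further: inhibition of cell growth, read out with a cell viability assay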
# Description: SANGER: Inhibition of human KNS-62 cell growth in a cell viability assay.
# SW 1116 = assay: cells; details: Homo sapiens;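 further: growth inhibition of SW1116 cells, read out with a cell viability assay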
# Description: SANGER: Inhibition of human SW1116 cell growth in a cell viability assay.
# ZR-75-30 = assay: cells; details: Homo sapiens;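 further: growth inhibition of ZR-75-30 cells, measured with a cell viability readout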
# Description: SANGER: Inhibition of human ZR-75-30 cell growth in a cell viability assay.
# ECC10 = assay: cells; details: Homo sapiens;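 further: growth inhibition of ECC10 cells, read out by a cell viability assay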
# Description: SANGER: Inhibition of human ECC10 cell growth in a cell viability assay.
# RH-18 = assay: cells; details: Homo sapiens, Rh18;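 further: growth inhibition of human RH-18 cells, read out with a cell viability assay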
# Description: SANGER: Inhibition of human RH-18 cell growth in a cell viability assay.
# D-423MG = assay: cells; details: Homo sapiens
# Description: SANGER: Inhibition of human D-423MG cell growth in a cell viability assay.
# CFPAC-1 = assay: cells; details: Homo sapiens;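 further: cell viability readout used to gauge suppression of CFPAC-1 cell proliferation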
# Description: SANGER: Inhibition of human CFPAC-1 cell growth in a cell viability assay.
# LU-135 = assay: cells; details: Homo sapiens
# Description: SANGER: Inhibition of human LU-135 cell growth in a cell viability assay.
# NCI-H1975 = assay: cells; details: Homo sapiens
# Description: SANGER: Inhibition of human NCI-H1975 cell growth in a cell viability assay.
# TGBC11TKB = assay: cells; details: Homo sapiens;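 further: growth inhibition of human TGBC11TKB cells, measured by a cell viability assay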
# Description: SANGER: Inhibition of human TGBC11TKB cell growth in a cell viability assay.
# EPLC-272H = assay: cells; details: Homo sapiens
# Description: SANGER: Inhibition of human EPLC-272H cell growth in a cell viability assay.
# D-566MG = assay: cells; details: Homo sapiens
# SW900 = assay: cells; details: Homo sapiens;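 further: IC50 is the concentration that inhibits SW900 cell growth, measured by a cell viability assay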
# Description: SANGER: Inhibition of human SW900 cell growth in a cell viability assay.
# NCI-H2291 = assay: cells; details: Homo sapiens
# Description: SANGER: Inhibition of human NCI-H2291 cell growth in a cell viability assay.
# A549 = assay: cells; details: Homo sapiens;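 further: growth inhibition of A549 cells, read out with a cell viability assay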
# Description: SANGER: Inhibition of human A549 cell growth in a cell viability assay.
# NBsusSR = assay: cells; details: Homo sapiens;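 further: growth inhibition of the human cell line, read out with a cell viability assay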
# Description: SANGER: Inhibition of human NBsusSR cell growth in a cell viability assay.
# BALL-1 = assay: cells; details: Homo sapiens;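 further: growth inhibition of BALL-1 cells, read out with a cell viability assay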
# Description: SANGER: Inhibition of human BALL-1 cell growth in a cell viability assay.
# H-EMC-SS = assay: cells; details: Homo sapiens
# Description: SANGER: Inhibition of human H-EMC-SS cell growth in a cell viability assay.
# NCI-H2029 = assay: cells; details: Homo sapiens;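 further: Read-out is a viability assay on the cultured cells, and IC50 is the concentration that suppresses cell growth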
# Description: SANGER: Inhibition of human NCI-H2029 cell growth in a cell viability assay.
# CHP-134 = assay: SANGER: Inhibition of human CHP-134 cell growth in a cell viability assay.
# CP67-MEL = assay: SANGER: Inhibition of human CP67-MEL cell growth in a cell viability assay.
# KP-N-RT-BM-1 = assay: SANGER: Inhibition of human KP-N-RT-BM-1 cell growth in a cell viability assay.
Structure (SMILES),IC50 (NCI-H1666),IC50 (NCI-H1048),IC50 (OC-314),IC50 (KNS-62),IC50 (SW 1116),IC50 (ZR-75-30),IC50 (ECC10),IC50 (RH-18),IC50 (D-423MG),IC50 (CFPAC-1),IC50 (LU-135),IC50 (TGBC11TKB),IC50 (EPLC-272H),IC50 (D-566MG),IC50 (NCI-H2291),IC50 (A549),IC50 (NBsusSR),IC50 (BALL-1),IC50 (H-EMC-SS),IC50 (NCI-H2029),also measured
CCn1c(-c2nonc2N)nc2cnc(Oc3cccc(NC(=O)c4ccc(OCCN5CCOCC5)cc4)c3)cc21 [GSK-269962A],–,–,–,–,–,–,–,–,–,–,–,–,–,–,–,–,–,–,–,–,IC50 (NCI-H2227): > 2500 nM; IC50 (ECC12): > 2500 nM; IC50 (NCI-H2107): > 2500 nM; IC50 (CRO-AP2): 2360 nM; IC50 (SKM-1): > 2500 nM; IC50 (NCI-H128): > 2500 nM; IC50 (EW-12): > 2500 nM
C[C@]12O[C@H](C[C@]1(O)CO)n1c3ccccc3c3c4c(c5c6ccccc6n2c5c31)CNC4=O [LESTAURTINIB],1890 nM,141 nM,1840 nM,> 2000 nM,> 2 µM,> 2 µM,311 nM,> 2 µM,571 nM,> 2000 nM,> 2000 nM,1410 nM,154 nM,96.5 nM,1800 nM,194 nM,162 nM,> 2 µM,425 nM,> 2 µM,IC50 (H9): 34.8 nM; IC50 (NCI-H1975): 1250 nM; IC50 (SW900): 1410 nM
CC(=O)c1c(C)c2cnc(Nc3ccc(N4CCNCC4)cn3)nc2n(C2CCCC2)c1=O [PALBOCICLIB],–,> 4000 nM,> 4000 nM,> 4000 nM,> 4 µM,> 4 µM,2700 nM,> 4 µM,> 4000 nM,> 4000 nM,> 4000 nM,> 4000 nM,> 4000 nM,> 4000 nM,> 4000 nM,1290 nM,743 nM,> 4 µM,> 4000 nM,> 4 µM,IC50 (H9): 495 nM; IC50 (CHP-134): 1120 nM
Cc1[nH]c(/C=C2\C(=O)Nc3ccc(S(=O)(=O)Cc4c(Cl)cccc4Cl)cc32)c(C)c1C(=O)N1CCC[C@@H]1CN1CCCC1 [PHA-665752],–,–,–,–,–,–,–,–,–,–,–,–,–,–,–,–,–,–,–,–,IC50 (CP67-MEL): > 2000 nM; IC50 (KP-N-RT-BM-1): > 2000 nM; IC50 (CRO-AP2): > 2000 nM; IC50 (SKM-1): > 2000 nM; IC50 (NCI-H128): > 2000 nM; IC50 (EW-12): > 2000 nM
CCCS(=O)(=O)Nc1ccc(F)c(C(=O)c2c[nH]c3ncc(Cl)cc23)c1F [PLX-4720],> 10000 nM,> 10000 nM,> 10000 nM,> 10000 nM,> 10 µM,> 10 µM,> 10000 nM,> 10 µM,> 10000 nM,> 10000 nM,> 10000 nM,> 10000 nM,> 10000 nM,> 10000 nM,> 10000 nM,> 10000 nM,> 10000 nM,> 10 µM,> 10000 nM,> 10 µM,IC50 (CHP-134): > 10000 nM; IC50 (SW900): > 10000 nM
CC[C@]1(O)C[C@@H]2CN(CCc3c([nH]c4ccccc34)[C@@](C(=O)OC)(c3cc4c(cc3OC)N(C)[C@H]3[C@@](O)(C(=O)OC)[C@H](OC(C)=O)[C@]5(CC)C=CCN6CC[C@]43[C@@H]65)C2)C1 [VINBLASTINE],20.1 nM,10.1 nM,2.22 nM,5.8 nM,> 0.1 µM,> 0.1 µM,21.2 nM,> 0.1 µM,8.64 nM,93.2 nM,35.6 nM,15.8 nM,10.8 nM,2.04 nM,> 100 nM,4.95 nM,3.23 nM,> 0.1 µM,> 100 nM,> 0.1 µM,IC50 (H9): 2.25 nM; IC50 (NCI-H1975): 24.2 nM; IC50 (SW900): 25.4 nM

# From ChEMBL document CHEMBL1201861, “Genomics of Drug Sensitity in Cancer screening data, Wellcome Trust Sanger Institute”
